What all share (format): physicochemical
Series [1] in a line: Hygroscopicity assessment by dynamic water vapor sorption/desorption analysis (DVS). Conditions: for sample mass uptake: 25°C; for hygroscopic character: criteria: 2% maximum uptake at 60% relative humidity. How it is done:
The dynamic vapor sorption (DVS) analysis with water is performed on a DVS-Intrinsic incubator from SMS Ltd, equipped with DVS-Intrinsic Control Software 1.0. A sample weight of about 8 to 10mg, placed in an aluminum pan holder, is submitted to a full cycle analysis (sorption followed by desorption) in a dm/dt mode according to the conditions described in Table 6 below. Table 6 [table] The sample obtained after crystallization protocol is pre-dried under a stream of dry filtered air until a stable weight is obtained. Next, relative humidity is increased by 5% increments. For each step, the sample mass is allowed to increase until equilibrium is reached (dm/dt criterion), and then a new relative humidity rise occurs. […] After equilibration at this point, desorption begins in a similar stepwise fashion, with sample weight again allowed to stabilize after each incremental humidity decrease. For each segment of the method described above, the recording of the sample mass allows describing of the whole sorption/desorption behavior versus relative humidity. The hygroscopic character of the two crystal forms has been investigated as described above.

Series [2] in a line: Solubility assessment in pH 1 HCl/KCl buffer (saturation, 24 hours at 20°C, HPLC). To be noted: pH 1, simulated gastric fluid, thermodynamic from solid. How it is done:
The solubility of the HC1 salt and of the free base was compared in a pH1 HC1/KC1 buffer and in a pH 7.4 phosphate buffer. For each medium, the saturation of the medium is obtained by adding an excess of active ingredient to a given volume of test medium. The suspension is stirred over 24 hours at 20°C, protected from light. The supernatant is then isolated by centrifugation, diluted in a solvent mixture allowing its injection into the chromatographic system. The compound concentration in solution for each medium is determined by external standardization and HPLC under the conditions detailed in Table3 below. Solubility was tested over a range from 1 µg/mL up to 1 mg/mL.

Series [3] can be described thus: Solubility assessment of the two crystal forms (solubilized free base concentration over time in pH 7.4 buffer, HPLC). To be noted: for solubility: pH 7.4. How it is done:
The solubility of the two crystal forms have been characterized as described below: • A suspension is prepared in the buffer. Magnetic stirring is applied at 100 rpm.
The concentration of the free base in solution in buffer solution at pH 7.4 (38g Na2HPO4, 12 H2O + 3,8g NaH2PO4, 2 H2O completed to 1L with de-ionized water) is determined after 30 min, […], 2h, 4h, 6h and 24h at ambient temperature protected from light. For that purpose, the samples are withdrawn and filtered on filter Millex PVDF 0.22µm (diameter=13mm) and diluted in water/acetonitrile 50/50 (v/v) in order to reach a concentration in the range of standard solutions concentrations. Two separated dilutions are performed for each sample and the final result is the mean of these two dilutions results. The concentration of the solubilized fraction is determined by HPLC by a short gradient reverse phase standard method with UV-diode array detection solution.
The following tables display the solubilized freebase concentrations as a function of time at pH 7.4 (Table 10) at 20°C (samples protected from light) for: - Form A : crystalline freebase (sample 2), - Form B : crystalline freebase (sample 1).

Assay in series [4]: as above
Conditions: pH 7.4, 20°C, protected from light.

Converted amounts (≈) assume the structure as drawn. “Also recorded” adds a separate entry of the source. Where two headings read alike, the source gives them in different places.

For the molecule `CN(C)c1cccc(-c2c3c(=O)n(-c4ccccc4Cl)[nH]c3cc(=O)n2C)c1` [free base, 2-(2-chlorophenyl)-4-[3-(dimethylamino)phenyl]-5-methyl-1H-pyrazolo[4,3-c] pyridine-3,6(2H,5H)-dione], the sample mass uptake in series [1] (60% relative humidity) is listed as 0.2%; in series [1] (95% relative humidity), 0.3%. Besides, the hygroscopic character entry in series [1] is listed as “non-hygroscopic”.
Molecule `CN(C)c1cccc(-c2c3c(=O)n(-c4ccccc4Cl)[nH]c3cc(=O)n2C)c1` [Form B, 2-(2-chlorophenyl)-4-[3-(dimethylamino)phenyl]-5-methyl-1H-pyrazolo[4,3-c] pyridine-3,6(2H,5H)-dione] had a solubility at 24 h in series [2] greater than 30000 µg/mL. For the same molecule, the Solubilized fraction in series [3] (pH 7.4, 20°C, protected from light, 30min) came to 0.23 mg/mL; in series [3] (pH 7.4, 20°C, protected from light, 2h) it was 0.26 mg/mL; in series [3] (pH 7.4, 20°C, protected from light, 4h) it was 0.27 mg/mL; in series [3] (pH 7.4, 20°C, protected from light, 6h), 0.28 mg/mL; in series [3] (pH 7.4, 20°C, protected from light, 24 h), 0.26 mg/mL; in series [4] (1h), 0.25 mg/mL. For the same molecule, the solubility in series [3] (phosphate buffer, 20 °C, pH 7.4, aqueous buffer, thermodynamic from solid, read-out: Solubility) came to 300 µg/mL (≈ 760 µM). In series [1], the hygroscopic character result is given as “non-hygroscopic; also recorded: not hygroscopic”. Also, the “mass loss upon drying” value in series [1] (drying at 0%RH) worked out at 0.2%.
Consider `CN(C)c1cccc(-c2c3c(=O)n(-c4ccccc4Cl)[nH]c3cc(=O)n2C)c1` [Form A, 2-(2-chlorophenyl)-4-[3-(dimethylamino)phenyl]-5-methyl-1H-pyrazolo[4,3-c] pyridine-3,6(2H,5H)-dione], for which, in series [3], the solubility came to 500 µg/mL (≈ 1270 µM). Besides, the solubility at 30 min in series [3] (phosphate buffer, 20 °C, pH 7.4, aqueous buffer, thermodynamic from solid, pH 7.4, 20°C, protected from light, 30min, read-out: Solubilized fraction) was found to be 330 µg/mL (≈ 836 µM). In addition, the solubility at 2 h in series [3] (phosphate buffer, 20 °C, pH 7.4, aqueous buffer, thermodynamic from solid, pH 7.4, 20°C, protected from light, 2h, read-out: Solubilized fraction) was determined as 370 µg/mL (≈ 937 µM). The solubility at 4 h in series [3] (phosphate buffer, 20 °C, pH 7.4, aqueous buffer, thermodynamic from solid, pH 7.4, 20°C, protected from light, 4h, read-out: Solubilized fraction) worked out at 390 µg/mL (≈ 988 µM). Moreover, the solubility at 6 h in series [3] (phosphate buffer, 20 °C, pH 7.4, aqueous buffer, thermodynamic from solid, pH 7.4, 20°C, protected from light, 6h, read-out: Solubilized fraction) amounted to 400 µg/mL (≈ 1010 µM). For the same molecule, in series [3] (phosphate buffer, 20 °C, pH 7.4, aqueous buffer, thermodynamic from solid, pH 7.4, 20°C, protected from light, 24 h, read-out: Solubilized fraction), the solubility at 24 h amounted to 510 µg/mL (≈ 1290 µM). The solubility at 1 h in series [4] (phosphate buffer, 20 °C, pH 7.4, aqueous buffer, thermodynamic from solid, read-out: Solubilized fraction) was found to be 350 µg/mL (≈ 886 µM). Moreover, the sample mass uptake in series [1] (60% relative humidity) is reported as 0.2%; in series [1] (95% relative humidity) it was 0.3%.

(Values after patent EP3098220A1, “PROCESS FOR THE PREPARATION OF A NADPH OXIDASE INHIBITOR AND ITS POLYMORPHS AND USES THEREOF” (GenKyoTex SA, priority 2015, dated 2016).)
